# Where “and” joins values, the source holds several entries; their conditions need not be identical. Equal values may be shown once.
# Test system: 633275-114-R-J1-PDC complex spheroids, viability
# Assay: Anticancer human tumor 633275-114-R-J1-PDC patient-derived endometrial adenocarcinoma cell line growth inhibition [GQUAD]
# Conditions: for viability, T/C: stronger effect = lower value
# From the text: DNA G-quadruplex Stabilizer Agents in Combinations in Complex Spheroids
# A high-throughput screen of multi-cell type tumor spheroids was designed to identify active combinations of DNA G-quadruplex stabilizer agents and targeted small molecules. Complex spheroids include a stromal component modeled by human endothelial cells (HUVEC) and fibroblasts modeled by human mesenchymal stem cells (MSCs). The concentration ranges selected for each drug and investigational agent were based upon clinically achievable concentrations if the clinical Cmax of the agent was known.
# Compounds. The drugs and investigational agents: pidnarulex (CX-5461; NSC782164), APTO-253 (NSC789042), BRACO-19 (NSC847499), peposertib (NSC802822), ceralasertib (NSC780249), elimusertib (NSC800525), camonsertib (NSC841442), AZD-1390 (NSC803789), olaparib (NSC753686), talazoparib (NSC767125), ART-558 (NSC835418), sotorasib (NSC818433), MRTX-1133 (NSC836407), SN-38 (NSC673596), topotecan (NSC609699), etoposide (NSC141540), doxorubicin (NSC123127), gemcitabine (NSC613327), 5-fluorouracil (NSC19893), paclitaxel (NSC125973), vemurafenib (NSC761431), panobinostat (NSC761190), R-306465 (JNJ-16241199; NSC773264), adavosertib (NSC754352), TP-3654 (NSC805149), carboplatin (NSC241240), KSQ-4279 (NSC840948), and staurosporine (NSC755774) were obtained from the National Cancer Institute (NCI) Developmental Therapeutics Program Chemical Repository (34). The FDA-approved anticancer drug set is available from the NCI Developmental Therapeutics Program. […] The stock solutions were prepared in dimethyl sulfoxide (DMSO, Sigma-Aldrich, St. Louis, MO, cat. D2650) at 800-fold the tested concentration and stored at -70 degrees C prior to their use. All drugs and investigational agents were tested over a range starting from a high concentration at or near the clinical Cmax and decreasing in half-log increments. If the clinical Cmax for an agent had not been determined, the highest concentration tested was 10 microM.
# 2.3 Cell Culture. All cells were maintained in an incubator at 37 degrees C and 5% CO2 with 95% humidity. The PDC lines were cultured according to standard operating procedures established by the NCI PDMR. All PDCs were thawed and cultured in Matrigel-coated flasks prepared with a working solution of 1X Ham's F-12 nutrient mix, without supplementation (Invitrogen, cat. 11765054), 100 U/mL penicillin-streptomycin (Invitrogen, cat. 15140122), and 2.5% Matrigel (Corning Inc., cat. 354248) for the first three passages. The 857933-349-R-J2-PDC line was cultured in 6C/Colon 1B media, which includes advanced DMEM/F-12 (Thermo Fisher Scientific, cat. 12634028), 10 mM HEPES (Thermo Fisher Scientific, cat. 15630080), 1X GlutaMAX supplement (Thermo Fisher Scientific, cat. 35050061), 0.1 mg/mL primocin (InvivoGen, cat. ant-pm-2), 10% defined fetal bovine serum, heat inactivated (HyClone Laboratories Inc., cat. SH30070.03HI), 50% L-WRN conditioned media (ATCC, cat. CRL-3276), 1.25 mM N-Acetyl-L-cysteine (Sigma-Aldrich, cat. A9165), 10 mM nicotinamide (Sigma-Aldrich, cat. N0636), 1X B-27 supplement (Thermo Fisher Scientific, cat. 17504044), 1X N-2 supplement (Thermo Fisher Scientific, cat. 17502048), 10 microM Y-27632 dihydrochloride (Tocris Bioscience, cat. 1254), and 50 ng/mL human EGF recombinant protein (Thermo Fisher Scientific, cat. PHG0311). The 485176-168-R4-J1-PDC line was cultured in Panc media, which includes all 6C/Colon 1B media components plus 100 ng/mL human FGF-10 (Thermo Fisher Scientific, cat. 100-26), 500 nM SB-431542 (Selleckchem, cat. S1067), and gastrin (Tocris, cat. 3006).
# […]
# 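Also: spheroids exposed to the agents for seven days.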
# 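For viability, T/C in this document: percent of DMSO vehicle control viability which is 100%.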
IC50 (curve of compound),"IC50 (compound alone, run of 03/26/2024)",SMILES,"viability, T/C (compound 0.0316 µM)","viability, T/C (compound 0.1 µM)","viability, T/C (compound 0.316 µM)","viability, T/C (compound 1 µM)","viability, T/C (compound 3.16 µM)","viability, T/C (compound 10 µM)","viability, T/C (compound 0.000999 µM)","viability, T/C (compound 0.00316 µM)","viability, T/C (compound 0.00999 µM)","viability, T/C (compound 0.0999 µM)"
> 10000 nM,–,C#Cc1c(F)ccc2cc(O)cc(-c3ncc4c(N5CC6CCC(C5)N6)nc(OCC56CCCN5CC(F)C6)nc4c3F)c12 (stereo unspecified),113% and 109% and 110%,97.5% and 81% and 88.5%,89.9% and 97.2% and 102%,91.7% and 88.4% and 80.4%,89.1% and 69.1% and 78.6%,72.7% and 64.9% and 67.2%,–,–,–,–
> 10000 nM,–,C=CC(=O)N1CCN(c2nc(=O)n(-c3c(C)ccnc3C(C)C)c3nc(-c4c(O)cccc4F)c(F)cc23)C(C)C1 (stereo unspecified),98.6% and 102% and 105%,101% and 93.9% and 95.3%,109% and 115% and 99.2%,105% and 90.3% and 92%,111% and 93.5% and 105%,85% and 77% and 90.2%,–,–,–,–
649 nM and 682 nM and 590 nM,–,C=CCn1c(=O)c2cnc(Nc3ccc(N4CCN(C)CC4)cc3)nc2n1-c1cccc(C(C)(C)O)n1,103% (2×) and 101%,85.9% and 89.3% and 91.3%,73.9% and 70.5% and 70.1%,35.7% and 39.9% and 32.9%,20.4% and 22.2% and 19.9%,14.6% and 16.2% and 13.9%,–,–,–,–
< 31.6 nM,–,CC(=O)O[C@H]1C(=O)[C@@]2(C)[C@H]([C@H](OC(=O)c3ccccc3)[C@]3(O)C[C@H](OC(=O)[C@H](O)[C@@H](NC(=O)c4ccccc4)c4ccccc4)C(C)=C1C3(C)C)[C@]1(OC(C)=O)CO[C@@H]1C[C@@H]2O,47.5% and 49.6% and 46.9%,22.7% and 22.6% and 27.5%,18.4% and 21% and 21.7%,20.4% and 20% and 23.4%,18.8% and 21.8% and 21.4%,19.4% and 21.5% and 20.4%,–,–,–,–
1810 nM and 2010 nM and 1640 nM,–,CC(C)(O)C1CCC(Nc2ccc3ncc(-c4cccc(C(F)(F)F)c4)n3n2)CC1 (stereo unspecified),103% and 106% (2×),94.8% and 101% and 89.9%,95.2% and 87.9% and 105%,68.7% and 71.4% and 61.6%,29.8% and 33.2% and 29.4%,35% and 33.7% and 39.8%,–,–,–,–
> 10000 nM,–,CC(C)n1c(=O)n(C)c2cnc3cc(F)c(-c4ccc(OCCCN5CCCCC5)nc4)cc3c21,111% and 107% and 105%,102% and 105% and 94.4%,112% and 103% and 93.6%,95.5% and 97.2% and 101%,96.8% and 95.2% and 92.5%,69.9% and 73.6% and 72.5%,–,–,–,–
170 nM and 137 nM and 140 nM,–,CC1COCCN1c1cc(-c2ccnn2C)c2ccnc(-c3ccn[nH]3)c2n1 (stereo unspecified),81% and 83.4% and 86.5%,59.5% and 53.2% and 55.1%,38.6% and 39.2% and 35.8%,26.8% and 24.3% and 27.8%,19.3% (2×) and 20.4%,18% and 15.8% and 15.7%,–,–,–,–
117 nM and 109 nM and 99.8 nM,–,CC1COCCN1c1cc(C2(O)CC3CCC(C2)O3)c2cnn(-c3ccn[nH]3)c2n1 (stereo unspecified),70% and 78% and 77.7%,54.3% and 51.8% and 50.7%,29% and 32.2% and 29.2%,19.2% and 21% and 21.1%,13.5% (2×) and 15.8%,8.78% and 10.1% and 9.68%,–,–,–,–
3020 nM and 3220 nM and 6630 nM,–,CC1COCCN1c1cc(C2(S(C)(=N)=O)CC2)nc(-c2ccnc3[nH]ccc23)n1 (stereo unspecified),94.8% and 102% and 108%,97.4% and 89.5% and 94.1%,98.2% and 98.4% and 91.8%,79.9% and 72.7% and 79.3%,49.4% and 51.8% and 86.4%,31% and 33.7% and 32.8%,–,–,–,–
8670 nM and 8460 nM and 7300 nM,–,CCCS(=O)(=O)Nc1ccc(F)c(C(=O)c2c[nH]c3ncc(-c4ccc(Cl)cc4)cc23)c1F,101% and 96% and 115%,91.7% and 116% and 104%,101% and 107% and 113%,105% and 106% and 99.1%,101% and 87.6% and 96.9%,42.9% and 43.6% and 32.6%,–,–,–,–
71.7 nM and 79.8 nM and 73.9 nM,–,CC[C@@]1(O)C(=O)OCc2c1cc1n(c2=O)Cc2cc3c(CN(C)C)c(O)ccc3nc2-1,68.2% and 70.6% and 66.2%,–,37.1% and 38.9% and 35.8%,–,–,–,95.5% and 106% and 99.4%,97.2% and 89% and 87.9%,86% and 86.5% and 92%,41.4% and 40.2% and 45%
2.99 nM and 3.5 nM and 2.94 nM,–,CCc1c2c(nc3ccc(O)cc13)-c1cc3c(c(=O)n1C2)COC(=O)[C@]3(O)CC,32.8% and 34.7% and 35.9%,–,23.7% (2×) and 24.4%,–,–,–,72.9% and 83.1% and 65.5%,47.6% and 49.1% and 47%,36.6% and 36.4% and 38.1%,30% and 24.7% and 28.8%
–,7.24 µM [middle of 12 runs],CN(C)c1ccc(Nc2c3ccc(NC(=O)CCN4CCCC4)cc3nc3cc(NC(=O)CCN4CCCC4)ccc23)cc1,102% [middle of 12 runs],101% [middle of 12 runs],103% [middle of 12 runs],94.3% [middle of 12 runs],81.8% [middle of 12 runs],36.6% [middle of 12 runs],–,–,–,–
